Source: PubChem BioAssay (NCI)
“And” between values parts separate entries of the source, which are not always exact repeats. Equal entries are not always repeated.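 Test compounds were applied to cells in 96-well plates for 48 hours at 5 doses. Here, GI50 denotes the concentration required for 50% inhibition of growth. TGI: concentration producing complete growth inhibition.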

Key:
Test in all cases: inhibition of tumour cell growth, NCI panel, 48 h; in the data active = GI50 below about 0.43 µM; inactive = the rest
786-0 renal = tested on: 786-0 renal
NCI-H226 lung = tested on: NCI-H226 lung
HL-60(TB) leukemia = tested on: HL-60(TB) leukemia
IGROV1 ovarian = tested on: IGROV1 ovarian
HS 578T breast = tested on: HS 578T breast
NCI-H460 lung = tested on: NCI-H460 lung
NCI-H23 lung = tested on: NCI-H23 lung
SF-295 CNS = tested on: SF-295 CNS
MALME-3M melanoma = tested on: MALME-3M melanoma
OVCAR-8 ovarian = tested on: OVCAR-8 ovarian
MDA-MB-435 = tested on: MDA-MB-435
OVCAR-4 ovarian = tested on: OVCAR-4 ovarian
PC-3 prostate = tested on: PC-3 prostate
RPMI-8226 leukemia = tested on: RPMI-8226 leukemia
UACC-257 melanoma = tested on: UACC-257 melanoma
U251 CNS = tested on: U251 CNS
HCT-116 colon = tested on: HCT-116 colon
OVCAR-5 ovarian = tested on: OVCAR-5 ovarian
BT-549 breast = tested on: BT-549 breast
CCRF-CEM leukemia = tested on: CCRF-CEM leukemia
SN12C renal = tested on: SN12C renal
TK-10 renal = tested on: TK-10 renal
MCF7 breast = tested on: MCF7 breast
SF-268 CNS = tested on: SF-268 CNS
LOX IMVI melanoma = tested on: LOX IMVI melanoma
NCI/ADR-RES ovarian = tested on: NCI/ADR-RES ovarian
M14 melanoma = tested on: M14 melanoma
SK-MEL-2 melanoma = tested on: SK-MEL-2 melanoma
MDA-N = tested on: MDA-N
DU-145 prostate = tested on: DU-145 prostate
HOP-62 NSCLC = tested on: HOP-62 NSCLC
SW-620 colon = tested on: SW-620 colon
SNB-19 CNS = tested on: SNB-19 CNS
HCT-15 colon = tested on: HCT-15 colon
HT29 colon = tested on: HT29 colon
A549 NSCLC = tested on: A549 NSCLC
NCI-H522 lung = tested on: NCI-H522 lung
MDA-MB-231 breast = tested on: MDA-MB-231 breast
CAKI-1 renal = tested on: CAKI-1 renal
A498 renal = tested on: A498 renal
EKVX NSCLC = tested on: EKVX NSCLC
RXF 393 renal = tested on: RXF 393 renal
COLO 205 colon = tested on: COLO 205 colon
SK-MEL-28 melanoma = tested on: SK-MEL-28 melanoma
T-47D breast = tested on: T-47D breast
MOLT-4 leukemia = tested on: MOLT-4 leukemia
UACC-62 melanoma = tested on: UACC-62 melanoma
UO-31 renal = tested on: UO-31 renal
OVCAR-3 ovarian = tested on: OVCAR-3 ovarian
SK-MEL-5 melanoma = tested on: SK-MEL-5 melanoma
KM12 colon = tested on: KM12 colon
K-562 leukemia = tested on: K-562 leukemia
ACHN renal = tested on: ACHN renal
SK-OV-3 ovarian = tested on: SK-OV-3 ovarian
HOP-92 NSCLC = tested on: HOP-92 NSCLC
SF-539 CNS = tested on: SF-539 CNS
HCC-2998 colon = tested on: HCC-2998 colon
SNB-75 CNS = tested on: SNB-75 CNS

CCc1n[nH]c(=O)n1/N=C/c1ccc(/C=N/n2c(CC)n[nH]c2=O)cc1
> 100 µM: TGI (786-0 renal) | TGI (NCI-H226 lung) | TGI (HL-60(TB) leukemia) | TGI (IGROV1 ovarian) | TGI (HS 578T breast) | TGI (NCI-H460 lung) | TGI (NCI-H23 lung) | TGI (SF-295 CNS) | TGI (MALME-3M melanoma) | TGI (OVCAR-8 ovarian) | TGI (MDA-MB-435) | TGI (OVCAR-4 ovarian) | TGI (PC-3 prostate) | TGI (RPMI-8226 leukemia) | TGI (UACC-257 melanoma) | TGI (U251 CNS) | TGI (HCT-116 colon) | TGI (OVCAR-5 ovarian) | TGI (BT-549 breast) | TGI (CCRF-CEM leukemia) | TGI (SN12C renal) | TGI (TK-10 renal) | TGI (MCF7 breast) | TGI (SF-268 CNS) | TGI (LOX IMVI melanoma) | TGI (NCI/ADR-RES ovarian) | TGI (M14 melanoma) | TGI (SK-MEL-2 melanoma) | TGI (MDA-N) | TGI (DU-145 prostate) | TGI (HOP-62 NSCLC) | TGI (SW-620 colon) | TGI (SNB-19 CNS) | TGI (HCT-15 colon) | TGI (HT29 colon) | TGI (A549 NSCLC) | TGI (NCI-H522 lung) | TGI (MDA-MB-231 breast) | TGI (CAKI-1 renal) | TGI (A498 renal) | TGI (EKVX NSCLC) | TGI (RXF 393 renal) | TGI (COLO 205 colon) | TGI (SK-MEL-28 melanoma) | TGI (T-47D breast) | TGI (MOLT-4 leukemia) | TGI (UACC-62 melanoma) | TGI (UO-31 renal) | TGI (OVCAR-3 ovarian) | TGI (SK-MEL-5 melanoma) | TGI (KM12 colon) | TGI (K-562 leukemia) | TGI (ACHN renal)

COc1cccc2c1C(=O)c1c(O)c3c(c(O)c1C2=O)C[C@@](O)(C(=O)CO)C[C@@H]3OC1CC2C(OCN3CN2COC2C(C)OC(O[C@H]4C[C@](O)(C(=O)CO)Cc5c(O)c6c(c(O)c54)C(=O)c4c(OC)cccc4C6=O)CC23)C(C)O1 (stereo partly specified)
3.45 µM and 1.35 µM: TGI (SF-295 CNS)
0.616 µM and 0.072 µM: TGI (EKVX NSCLC)
0.574 µM and 0.294 µM: TGI (SK-MEL-28 melanoma)
0.419 µM and 2.77 µM and 1.23 µM: TGI (HOP-62 NSCLC)
0.277 µM and 0.5 µM and 0.104 µM: TGI (HCC-2998 colon)
0.198 µM and 0.381 µM and 0.136 µM: TGI (UACC-257 melanoma)
0.0663 µM and 0.0342 µM: TGI (SNB-75 CNS)
0.0641 µM and 0.148 µM: TGI (RXF 393 renal)
25 µM and 4.71 µM: TGI (SK-OV-3 ovarian)
0.673 µM: TGI (ACHN renal)
0.229 µM and 0.272 µM and 0.131 µM: TGI (MDA-N)
3.2 µM: TGI (SNB-19 CNS)
5.22 µM: TGI (OVCAR-4 ovarian)
2.64 µM and 0.294 µM: TGI (KM12 colon)
0.537 µM and 0.0856 µM: TGI (HCT-116 colon)
0.374 µM and 0.352 µM and 0.133 µM: TGI (MDA-MB-435)
0.204 µM and 0.0287 µM: TGI (LOX IMVI melanoma)
0.734 µM and 1.32 µM and 0.21 µM: TGI (BT-549 breast)
0.71 µM and 2.6 µM: TGI (U251 CNS)
0.148 µM: TGI (HT29 colon)
0.0116 µM: TGI (RPMI-8226 leukemia)
0.473 µM and 0.312 µM: TGI (COLO 205 colon)
0.381 µM and 0.263 µM and 0.506 µM: TGI (HOP-92 NSCLC)
0.16 µM and 0.0538 µM: TGI (NCI-H522 lung)
4.63 µM: TGI (A549 NSCLC)
4.22 µM and 1.27 µM: TGI (OVCAR-8 ovarian)
0.935 µM and 0.89 µM: TGI (PC-3 prostate)
0.112 µM and 0.067 µM: TGI (SK-MEL-2 melanoma)
0.0966 µM and 0.134 µM and 0.0359 µM: TGI (SN12C renal)
0.705 µM and 0.893 µM: TGI (MDA-MB-231 breast)
0.332 µM and 0.381 µM: TGI (M14 melanoma)
25 µM and 8.21 µM: TGI (NCI/ADR-RES ovarian)
0.209 µM and 0.108 µM and 0.0217 µM: TGI (NCI-H23 lung)
0.00658 µM: TGI (MOLT-4 leukemia)
0.197 µM and 0.0809 µM: TGI (MALME-3M melanoma)
0.236 µM and 0.263 µM: TGI (SK-MEL-5 melanoma)
active: GI50 (786-0 renal) 0.00792 µM | GI50 (NCI-H226 lung) 0.0357 µM and 0.0102 µM | GI50 (HL-60(TB) leukemia) 0.00267 µM | GI50 (IGROV1 ovarian) 0.0176 µM | GI50 (HS 578T breast) 0.0321 µM | GI50 (NCI-H23 lung) 0.0116 µM | GI50 (SF-295 CNS) 0.0312 µM | GI50 (MALME-3M melanoma) 0.0159 µM | GI50 (OVCAR-8 ovarian) 0.0176 µM | GI50 (MDA-MB-435) 0.0649 µM and 0.0267 µM | GI50 (OVCAR-4 ovarian) 0.104 µM | GI50 (PC-3 prostate) 0.0501 µM | GI50 (RPMI-8226 leukemia) 0.00487 µM | GI50 (UACC-257 melanoma) 0.0244 µM | GI50 (U251 CNS) 0.00772 µM | GI50 (HCT-116 colon) 0.0166 µM | GI50 (OVCAR-5 ovarian) 0.0886 µM and 0.0202 µM | GI50 (BT-549 breast) 0.117 µM and 0.0262 µM | GI50 (CCRF-CEM leukemia) 0.00301 µM | GI50 (SN12C renal) 0.0121 µM | GI50 (TK-10 renal) 0.232 µM | GI50 (SF-268 CNS) 0.00635 µM and 0.0122 µM | GI50 (NCI/ADR-RES ovarian) 0.325 µM and 0.0586 µM | GI50 (M14 melanoma) 0.0505 µM | GI50 (SK-MEL-2 melanoma) 0.023 µM | GI50 (MDA-N) 0.0522 µM and 0.021 µM | GI50 (SK-OV-3 ovarian) 0.131 µM and 0.0429 µM | GI50 (HOP-92 NSCLC) 0.0153 µM and 0.0159 µM | GI50 (DU-145 prostate) 0.0119 µM | GI50 (HOP-62 NSCLC) 0.0218 µM | GI50 (SW-620 colon) 0.0104 µM | GI50 (SNB-19 CNS) 0.0152 µM | GI50 (HCT-15 colon) 0.118 µM and 0.0517 µM | GI50 (HT29 colon) 0.0199 µM | GI50 (A549 NSCLC) 0.0128 µM | GI50 (NCI-H522 lung) 0.0068 µM | GI50 (MDA-MB-231 breast) 0.0482 µM | GI50 (CAKI-1 renal) 0.0175 µM | GI50 (A498 renal) 0.00382 µM | GI50 (EKVX NSCLC) 0.0855 µM and 0.0199 µM | GI50 (RXF 393 renal) 0.0148 µM | GI50 (COLO 205 colon) 0.0127 µM | GI50 (SK-MEL-28 melanoma) 0.0493 µM | GI50 (SF-539 CNS) 0.00553 µM | GI50 (T-47D breast) 0.0697 µM | GI50 (HCC-2998 colon) 0.075 µM and 0.0239 µM | GI50 (UACC-62 melanoma) 0.00501 µM | GI50 (OVCAR-3 ovarian) 0.0467 µM and 0.0154 µM | GI50 (SK-MEL-5 melanoma) 0.0447 µM | GI50 (KM12 colon) 0.046 µM and 0.0179 µM | GI50 (SNB-75 CNS) 0.00756 µM | GI50 (ACHN renal) 0.0082 µM
